Assay results published in patent EP2924039A1, “2-Amino-1-phenyl-pyrrolo[3,2-b]quinoxaline-3-carboxamide derivates” (Universität Zürich, priority 2014, dated 2015).

How the values were obtained:
K-562 leukemia cells = assay: Cell culture and GI50 determination (resazurin), K-562; format: cell-based; settings: Homo sapiens, K562, K-562, 48 hour incubation
Experimental: (§1) Krek (Institute of Cell Biology, ETH Zurich) were cultured in Dulbelcco's modified Eagle's medium (DMEM) supplemented with 10% (v/v) fetal bovine serum. K562 leukemia cells obtained from Dr. Silvio Hemmi (Institute of Molecular Life Sciences, UZH) were cultured using RPMI medium supplemented with 5% (v/v) fetal bovine serum. All the media was additionally supplemented with 100 units/mL of penicillin, 100µg/mL of streptomycin, 4.5 g/L glucose, 0.11g/L sodium pyrubate and 2mM glutamine and the cells were grown at 37°C in 5% CO2 atmosphere with 80% relative humidity.
After 24 hours, 12.5 µL of a 10 fold concentrated drug or DMSO solution in RMPI media was added in every well. After 48 hour incubation, cell viability was studied by measuring the ability of the cells to process resazurin.

[1] = test system: A498 (kidney cancer) cells; assay: Cell culture and GI50 determination (resazurin), A-498; format: cell-based; settings: Homo sapiens, A-498, 48h incubation
Experimental: as §1
(§2) The old media was removed, the cells were washed with PBS (phosphate-buffered saline) and fresh media was added. […] Control cells were treated with the same DMSO concentrations. […] After 3 hours, the fluorescence was quantified using a fluorescence microplate reader (Biotek, FLx800™) at the respective excitation and emission wavelength of 560 and 590 nm. Resazurin becomes fluorescent under mitochondrial reduction and its emission directly correlates with the metabolic stability of the cells. […] All measurements were performed at least in triplicate (see table 1).

[2] = test system: KM12 (colon cancer) cells; assay: Cell culture and GI50 determination (resazurin), KM12; format: cell-based; settings: Homo sapiens
Experimental: as §1, §2

HT-29 = assay: Cell culture and GI50 determination (resazurin), HT-29; format: cell-based; settings: Homo sapiens; HT-29, resazurin
Experimental: as §2

[3] = test system: MDA-MB-231 (breast cancer) cells; assay: Cell culture and GI50 determination (resazurin), MDA-MB-231; format: cell-based; settings: Homo sapiens, MDA-MB-231, 72 h
Experimental: as §1, §2

[4] = test system: HOP-92 (lung cancer) cells; assay: Cell culture and GI50 determination (resazurin), HOP-92; format: cell-based; settings: Homo sapiens; HOP-92, resazurin
Experimental: as §1, §2

EphA3 = biological target: T1, EphA3 (Homo sapiens, UniProt P29320); assay: Differential Scanning Fluorimetry; format: binding; settings: 2 µM EphA3, compound 20µM; read-out: Delta Tm
T1 construct: A clone of EphA3 kinase domain (residues: 606-947); made in house; host or cells: Escherichia coli BL21 (DE3)
T1 sequence (P29320 606-947): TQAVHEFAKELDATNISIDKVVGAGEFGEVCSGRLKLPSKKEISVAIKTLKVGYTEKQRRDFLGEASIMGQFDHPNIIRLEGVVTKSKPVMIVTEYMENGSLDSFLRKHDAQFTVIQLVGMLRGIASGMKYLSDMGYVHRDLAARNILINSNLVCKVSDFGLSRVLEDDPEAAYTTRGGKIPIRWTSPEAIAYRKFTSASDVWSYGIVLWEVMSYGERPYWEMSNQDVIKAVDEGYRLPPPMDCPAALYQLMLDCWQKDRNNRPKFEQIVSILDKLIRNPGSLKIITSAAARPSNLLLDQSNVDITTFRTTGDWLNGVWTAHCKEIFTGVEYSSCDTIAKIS
Experimental: Cell pellets were resuspended in buffer A (50mM Tris, pH 8.0 and 100mM NaCl, supplemented with protease inhibitors) and lysed by sonication. After centrifugation at 15,000 rpm for 1 h, the soluble fraction of EphA3 was purified using […] (GE healthcare), followed by gel filtration chromatography (Superdex75; GE healthcare). The appropriate fractions were combined and concentrated to ~10 mg/mL using Amicon filter devices (10kDa as cutoff) in a storage solution (100mM sodium chloride and 10mM Tris-HCl pH 8.0, 5% glycerol). The resulting solution was aliquoted and stored at -80°C for further usage.
A final volume of 40µL was added per well in a 96 well plate and incubated at room temperature for 1 h. The plates were centrifuged for 3 min at 450 rcf. The temperature gradient was performed in the range of 25°C-75°C (50 acquisitions per degree at a ramp rate of 4.4°C/s) using a LightCycler 480 Real-Time PCR System. […] All measurements were performed in triplicate.

[5] = test system: panel of 456 protein kinases; assay: Selectivity profiling at DiscoveRx (KinomeScan); format: binding; settings: 1 µM compound; for one or more of the protein kinases listed
Experimental: The selectivity profiling of compounds 10c, 10d, 10n and 10o were performed at DiscoveRx in a library of 456 kinases at a concentration of 1 µM. Briefly, kinases were mostly expressed as fusion proteins to […] and grown in 24-well blocks in E. Coli (derived from the BL21 strain). The rest of the kinases were expressed in HEK-293 cells and tagged with DNA for qPCR detection. Affinity resins were generated by mixing streptavidin-coated magnetic beads with biotinylated small molecule ligands for 30 minutes at 25 °C, followed by biotin and blocking buffer addition (SeaBlock (Pierce), 1 % BSA, 0.05 % Tween 20, 1 mM DTT). Inhibitors were kept at 40x stocks in 100% DMSO and added to the corresponding 384-well plates (40 µL). […] The kinase concentration present in the eluate was determined by qPCR. For further details, see Fabian, et. al., Nat. Biotechnol., 2005, 23 (3), 329-33.

full-length human EphB4 = biological target: T2, full-length human EphB4 (Homo sapiens, UniProt P54760); assay: Cellular phosphorylation assay (sandwich ELISA, ProQinase); format: cell-based; settings: mouse embryonic fibroblast cells overexpressing EphB4, stimulated with murine ephrinB2-Fc, read-out: cell IC50
T2 construct: stably transfected to overexpress full-length human EphB4; host or cells: Mouse embryonic fibroblast cells
T2 sequence (P54760 16-987): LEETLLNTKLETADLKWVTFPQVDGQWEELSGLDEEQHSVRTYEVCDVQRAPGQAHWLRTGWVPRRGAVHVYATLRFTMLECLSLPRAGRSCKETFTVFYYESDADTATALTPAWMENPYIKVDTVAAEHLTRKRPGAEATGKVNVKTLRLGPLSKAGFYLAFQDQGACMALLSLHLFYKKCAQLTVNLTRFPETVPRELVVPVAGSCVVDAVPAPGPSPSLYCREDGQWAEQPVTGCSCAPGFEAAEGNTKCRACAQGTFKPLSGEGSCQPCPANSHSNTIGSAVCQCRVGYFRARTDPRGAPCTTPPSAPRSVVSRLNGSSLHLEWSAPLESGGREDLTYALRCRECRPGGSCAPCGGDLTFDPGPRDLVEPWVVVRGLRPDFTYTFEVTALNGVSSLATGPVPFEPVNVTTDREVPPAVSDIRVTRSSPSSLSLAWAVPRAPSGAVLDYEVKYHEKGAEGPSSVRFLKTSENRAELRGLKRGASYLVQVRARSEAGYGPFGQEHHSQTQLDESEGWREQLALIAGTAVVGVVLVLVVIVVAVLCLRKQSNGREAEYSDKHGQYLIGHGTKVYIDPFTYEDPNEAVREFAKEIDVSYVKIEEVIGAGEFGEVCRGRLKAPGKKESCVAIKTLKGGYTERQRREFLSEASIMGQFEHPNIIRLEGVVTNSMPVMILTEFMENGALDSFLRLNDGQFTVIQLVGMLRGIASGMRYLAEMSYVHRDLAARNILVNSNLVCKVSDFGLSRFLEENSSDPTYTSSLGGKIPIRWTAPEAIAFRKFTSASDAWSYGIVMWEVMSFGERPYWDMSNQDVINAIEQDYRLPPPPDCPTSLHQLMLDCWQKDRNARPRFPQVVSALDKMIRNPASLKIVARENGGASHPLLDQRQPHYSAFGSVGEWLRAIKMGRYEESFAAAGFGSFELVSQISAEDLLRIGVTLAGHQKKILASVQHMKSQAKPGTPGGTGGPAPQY
Experimental: Cellular phosphorylation assays: The cellular phosphorylation experiments were performed at ProQinase GmbH. Mouse embryonic fibroblast cells, stably transfected to overexpress full-length human EphB4, were plated at 4×10^4 cells/well in DMEM supplemented with 10% FCS in 48-well culture dishes. Medium was replaced by DMEM without FCS before test compounds prediluted in 100% DMSO were added (final DMSO concentration of 1 %). After incubation for 90 min at 37 °C, cells were stimulated for 2 h at 4 °C using murine ephrinB2-Fc at a final concentration of 2 µg/ml. Quantification of EphB4 phosphorylation was assessed in a 96-well plate via sandwich ELISA using a myc capture antibody and an antiphosphotyrosine detection antibody. Table 4: Cell IC50 (µmol/l) in cells overexpressing EphB4

control binding to the kinase in presence of the compound relative to control binding in absence of the compound [5]	IC50 (full-length human EphB4) [µM]	SMILES	GI50 (K-562 leukemia cells) [µM]	GI50 [1] [µM]	GI50 [2] [µM]	GI50 (HT-29) [µM]	GI50 [3] [µM]	GI50 [4] [µM]	ΔTm at 20 µM (EphA3) [°C]
		Cc1cn(-c2cc(NC(=O)c3ccc(C)c(-n4c(N)c(C(N)=O)c5nc6ccccc6nc54)c3)cc(C(F)(F)F)c2)cn1 [Compound 10l]	0.029	5.71	2.84	4.36	3.05	3.01	16.2
		NC(=O)c1c(N)n(-c2cc(NC(=O)c3cccc(C(F)(F)F)c3)ccc2F)c2nc3ccccc3nc12 [Compound 10h, 2-amino-1-(2-fluoro-5-(3-(trifluoromethyl)benzamido)phenyl)-1H-pyrrolo[2,3-b]quinoxaline-3-carboxamide]	0.37	1.88	2.16	1.8	1.44	2.06	10.9
		NC(=O)c1c(N)n(-c2cc(C(=O)Nc3cccc(C(F)(F)F)c3)ccc2F)c2nc3ccccc3nc12 [Compound 10j]	0.081	2.44	1.87	2.97	2.69	2.12	13
		NC(=O)c1c(N)n(-c2ccc(NC(=S)Nc3cccc(C(F)(F)F)c3)cc2)c2nc3ccccc3nc12 [Compound 10k, 2-amino-1-(4-(3-(3-(trifluoromethyl)phenyl)thioureido)phenyl)-1H-pyrrolo[2,3-b]quinoxaline-3-carboxamide]	5.07	8.73	2.52	16.3	9.63	4.25	9.9
less than 10% of control	0.37	Cc1ccc(-n2nc(C(C)(C)C)cc2NC(=O)Nc2ccc(-n3c(N)c(C(N)=O)c4nc5ccccc5nc43)cc2)cc1 [Compound 10o]	0.02	1	0.21	0.78	0.98	1.48	17.3
		Cc1cn(-c2cc(C(=O)Nc3ccc(C)c(-n4c(N)c(C(N)=O)c5nc6ccccc6nc54)c3)cc(C(F)(F)F)c2)cn1 [Compound 10m]	0.03	4.01	2.54	13.4	1.93	5.12	15.8
		Cc1ccc(NC(=O)c2cccc(C(F)(F)F)c2)cc1-n1c(N)c(C(N)=O)c2nc3ccccc3nc21 [Compound 10g, 2-amino-1-(2-methyl-5-(3-(trifluoromethyl)benzamido)phenyl)-1H-pyrrolo[2,3-b]quinoxaline-3-carboxamide]	0.73	2.5	0.8	5.87	3.88	4.23	12.3
less than 10% of control	1.1	CC(C)(C)c1cc(NC(=O)Nc2ccc(-n3c(N)c(C(N)=O)c4nc5ccccc5nc43)cc2)n(-c2ccc3ncccc3c2)n1 [Compound 10n, 2-amino-1-(4-(3-(5-tert-butyl-2-quinolin-6-yl-2H-pyrazol)ureido)phenyl)-1H-pyrrolo[2,3-b]quinoxaline-3-carboxamide]	0.003	0.73	0.15	1.25	0.21	0.45	19.3
		NC(=O)c1c(N)n(-c2ccc(NC(=O)Nc3cccc(C(F)(F)F)c3)cc2)c2nc3ccccc3nc12 [Compound 10p, 2-amino-1-(4-(3-(3-(trifluoromethyl)phenyl)ureido)phenyl)-1H-pyrrolo[2,3-b]quinoxaline-3-carboxamide]	5.45	10.8	0.67	18	10.3	10	
		Cc1ccc(C(=O)Nc2cccc(C(F)(F)F)c2)cc1-n1c(N)c(C(N)=O)c2nc3ccccc3nc21 [Compound 10i]	0.036	2.07	1.57	2.82	1.32	1.92	14.4
